Experimental data from patent publication US12679878B2, “CRF2 receptor agonists and their use in therapy” (SANOFI, priority 2020, dated 2026).
Read-outs that look alike come from different tables or passages of the source. Starred links: 1 amine or outer side, 2 acyl side, 3 side chain; linkers in the order of their positions; H or OH if unused. Residues, ends and D or L forms follow the SMILES beside them. Groups on a side chain read outwards from the residue. *: point of attachment. C18 diacid = O=C(O)CCCCCCCCCCCCCCCCC(=O)*; γGlu = O=C(O)[C@H](CCC(=O)[*:2])N[*:1]; Palmitoyl = CCCCCCCCCCCCCCCC(=O)*; AEEA = NCCOCCOCC(=O)O

Assays:
[1] = target: T1, human CRF2α receptor (Homo sapiens, UniProt Q13324); experiment: cAMP agonism at human CRF2 α receptor in TeloHEAC cells (Example 7); assay type: cell-based; settings: cAMP HTRF, TeloHEAC cells stably expressing human CRF2 α
T1 construct: expressed in transfected cells; host or cells: TeloHEAC
T1 sequence (Q13324 1-411): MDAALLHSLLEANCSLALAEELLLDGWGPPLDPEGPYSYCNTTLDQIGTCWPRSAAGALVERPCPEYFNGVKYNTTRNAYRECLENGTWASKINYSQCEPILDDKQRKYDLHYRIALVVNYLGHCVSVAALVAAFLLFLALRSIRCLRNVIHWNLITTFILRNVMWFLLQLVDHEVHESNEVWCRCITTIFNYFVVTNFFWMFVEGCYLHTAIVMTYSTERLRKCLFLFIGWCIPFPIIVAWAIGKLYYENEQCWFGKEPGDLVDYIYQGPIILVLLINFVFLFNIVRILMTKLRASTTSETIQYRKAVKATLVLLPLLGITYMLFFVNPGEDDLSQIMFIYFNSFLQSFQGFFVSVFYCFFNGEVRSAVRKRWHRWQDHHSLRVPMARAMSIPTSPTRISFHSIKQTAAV
Method in brief: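 Thawed frozen stably transfected cells in HBSS/20 mM HEPES (0% or 0.1% HSA) plus 2 mM IBMX were exposed to compound at 2000 cells/well for 30 min at room temperature. Intracellular cAMP was read by HTRF (665/620 nm ratio) after 1 h lysis; EC50 was derived with 1000 nM urocortin 2 set as 100%.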

[2] = target: T2, CRF1R receptor (Homo sapiens, UniProt P34998); experiment: cAMP activity at anti-target CRF1R, CRF1R-overexpression CHO cell line (Example 9); assay type: cell-based
T2 construct: host or cells: CHO-K1 clone 2
T2 sequence (P34998 24-415): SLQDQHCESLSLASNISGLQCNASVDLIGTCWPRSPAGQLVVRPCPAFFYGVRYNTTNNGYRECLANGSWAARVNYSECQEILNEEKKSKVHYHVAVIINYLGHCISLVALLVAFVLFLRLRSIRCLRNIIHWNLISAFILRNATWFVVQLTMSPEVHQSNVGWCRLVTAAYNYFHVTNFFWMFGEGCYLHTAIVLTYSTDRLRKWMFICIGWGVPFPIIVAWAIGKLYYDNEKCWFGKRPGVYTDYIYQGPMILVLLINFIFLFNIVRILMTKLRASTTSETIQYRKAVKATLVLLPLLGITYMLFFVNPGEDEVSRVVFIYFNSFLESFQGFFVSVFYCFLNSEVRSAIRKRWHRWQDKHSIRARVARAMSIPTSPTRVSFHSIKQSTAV
Method in brief: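 cAMP accumulation was read by HTRF after 30 min at room temperature of compound treatment. Cells were cryopreserved CHO cells overexpressing CRF1R, plated at 2000/well in IBMX (2 mM)-containing HBSS/HEPES buffer with 0 or 0.1% HSA. Activity was normalized to 1000 nM UCN2 as 100%.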

[3] = Chemical stability, purity loss by UPLC-UV after 28 days at 40° C. vs 5° C., pH 4.5 acetate buffer (Example 12); assay type: physicochemical; settings: 28 days 40° C. vs 5° C.; pH 4.5, 20 mM acetate buffer; 300 μM
Method: The chemical stability of the compounds was assessed by storing the compounds under various conditions and then determining the loss of purity by UPLC-UV.
Prior to measuring the chemical stability of a batch of test compound, the purity of the compound was determined through UPLC/MS. For stability testing the target concentration was 300 μM pure compound. Therefore, solutions from solid samples were prepared in a pH 4.5, 20 mM acetate buffer system with a concentration of 300 μM compound based on the previously determined % purity:
At the starting point, UPLC-UV was performed by injection of 2 μl of the undiluted sample. Aliquots were then stored for 28 days at temperatures of 5 and 40° C. […] Then 2 μl samples of the undiluted supernatant were analysed with UPLC-UV. The chemical stability was calculated by the equation: [(purity after 28 days at 5° C.)−(purity after 28 days at 40° C.)]/(purity after 28 days at 5° C.)]×100%. The purity was calculated as: [(peak area compound)/(total peak area)]×100%.

[4] = Solubility in buffer systems by UPLC-UV (Example 13); assay type: physicochemical
Method in brief: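 The supernatant was diluted 1:10 and quantified by UPLC-UV peak area against a reference standard curve, correcting for sequence-based extinction coefficients.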

[5] = Physical stability, Thioflavin T fibrillation assay (Example 14); assay type: physicochemical; settings: 3 mg/ml, 37° C. shaking
Method in brief: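 Compounds at 3 mg/ml final in buffer were stressed at 37° C by repeated cycles of 10 s shaking at 960 rpm and 50 s rest. ThT fluorescence was read every 20 minutes in eight replicates, with fluorescence increase and lag time indicating fibrillation tendency.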

[6] = test system: rat CRF2R α receptor; experiment: cAMP agonism at rat CRF2R α receptor in A7R5 rat aortic smooth muscle cells (Example 8); assay type: cell-based; settings: cAMP HTRF, A7R5 rat aortic smooth muscle cell line, 0% HSA
Method in brief: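 Thawed cryopreserved A7R5 cells in HBSS/20 mM HEPES (0 or 0.1% HSA) with 2 mM IBMX, 2000 cells/well, were exposed to compound for 30 min at room temperature. cAMP was read by HTRF (665/620 nm ratio) after 1 h with lysis reagents. Activity was normalised to 1000 nM urocortin 2 as 100%, and EC50 was taken as the concentration giving 50% of maximal activation.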

[7] = 0% HSA, read-out: EC50 [nM], 0% HSA
[8] = Buffer A: 100 mM acetate buffer, pH 4.5
[9] = Buffer B: 100 mM acetate buffer, pH 4.5, 2.7 mg/ml m-cresol

| SMILES | EC50 [1, 7] | EC50 ([1]; 0.1% HSA, read-out: EC50 [nM], 0.1% HSA) | Emax ([2]; CRF1R-overexpression CHO cell line, read-out: Emax (%)) | Relative purity loss [%] [3] | solubility at 1 h ([4]; pH 4.5, Solubility in Buffer B [mg/ml]) | solubility at 1 h ([4]; pH 7.4, Solubility in Buffer C [mg/ml]) | Increase in FI (fluorescence intensity) [5, 8] | Lag time [5, 8] | Increase in FI (fluorescence intensity) [5, 9] | Lag time [5, 9] | EC50 [6] | Emax ([2]; CHO) | solubility at 1 h ([4]; Buffer B: 100 mM acetate buffer, pH 4.5, 2.7 mg/ml m-cresol, target 10 mg/ml, read-out: Solubility in Buffer B) | solubility at 1 h ([4]; Buffer C: 100 mM phosphate buffer, pH 7.4, target 10 mg/ml, read-out: Solubility in Buffer C) |
| --- | --- | --- | --- | --- | --- | --- | --- | --- | --- | --- | --- | --- | --- | --- |
| CCCCCCCCCCCCCCCC(=O)N[C@@H](CCC(=O)NCCCC[C@H](NC(=O)[C@H](CC(C)C)NC(=O)CNC(=O)[C@@H](NC(=O)[C@@H]1CCCN1C(=O)[C@@H](NC(=O)[C@H](CC(=O)O)NC(=O)[C@H](CC(C)C)NC(=O)[C@H](CO)NC(=O)[C@H](CC(C)C)NC(=O)[C@@H](NC(=O)[C@@H](N)[C@@H](C)CC)C(C)C)C(C)C)[C@@H](C)CC)C(=O)N[C@@H](CCC(N)=O)C(=O)N[C@@H](CCCCN)C(=O)N[C@@H](CC(C)C)C(=O)N[C@@H](CC(C)C)C(=O)N[C@@H](CCCCN)C(=O)N[C@@H](CCC(N)=O)C(=O)N[C@@H](CCC(N)=O)C(=O)N[C@@H](CCCNC(=N)N)C(=O)N[C@@H](CCC(N)=O)C(=O)N[C@@H](CCCNC(=N)N)C(=O)N[C@@H](CCCCN)C(=O)N[C@@H](CCC(=O)O)C(=O)N[C@@H](CCCNC(=N)N)C(=O)N[C@@H](CCC(N)=O)C(=O)N[C@@H](CCC(N)=O)C(=O)N[C@@H](C)C(=O)N[C@@H](CCC(=O)O)C(=O)N[C@@H](CCCCN)C(=O)N[C@@H](CC(N)=O)C(=O)N[C@@H](C)C(=O)N[C@@H](CCCNC(=N)N)C(=O)N[C@H](C(=O)N[C@@H](CC(C)C)C(=O)N[C@@H](C)C(=O)N[C@@H](CCCNC(=N)N)C(=O)N[C@H](C(N)=O)C(C)C)[C@@H](C)CC)C(=O)O [compound 6] (H-IVLSLDVPIGLK([γGlu-Palmitoyl])QKLLKQQRQRKERQQAEKNARILARV-NH2; N-terminus assumed) | 0.16 nM | 0.18 nM | 47.2% | 1.9% | > 8500 µg/mL | > 8100 µg/mL | No | >45 h | No | >45 h | – | – | – | – |
| CC[C@H](C)[C@H](N)C(=O)N[C@H](C(=O)N[C@@H](CC(C)C)C(=O)N[C@@H](CO)C(=O)N[C@@H](CC(C)C)C(=O)N[C@@H](CC(=O)O)C(=O)N[C@H](C(=O)N1CCC[C@H]1C(=O)N[C@H](C(=O)N[C@@H](CCCCN)C(=O)N[C@@H](CC(C)C)C(=O)N[C@@H](CCCCNC(=O)COCCOCCNC(=O)COCCOCCNC(=O)CC[C@H](NC(=O)CCCCCCCCCCCCCCCCC(=O)O)C(=O)O)C(=O)N[C@@H](CCC(N)=O)C(=O)N[C@H](C(=O)N[C@@H](CC(C)C)C(=O)N[C@@H](CC(C)C)C(=O)N[C@@H](CCCCN)C(=O)N[C@@H](CCC(N)=O)C(=O)N[C@@H](CCC(=O)O)C(=O)N[C@@H](CCCNC(=N)N)C(=O)N[C@@H](CCC(N)=O)C(=O)N[C@@H](CCCCN)C(=O)N[C@@H](CCCCN)C(=O)N[C@@H](CCC(N)=O)C(=O)N[C@@H](CCCNC(=N)N)C(=O)N[C@@H](CCC(N)=O)C(=O)N[C@@H](CCCCN)C(=O)N[C@@H](C)C(=O)N[C@@H](CCC(=O)O)C(=O)N[C@H](C(=O)N[C@@H](CC(N)=O)C(=O)N[C@@H](CCCCN)C(=O)N[C@@H](CCC(N)=O)C(=O)N[C@H](C(=O)N[C@@H](CC(C)C)C(=O)N[C@@H](C)C(=O)N[C@@H](CCC(N)=O)C(=O)N[C@H](C(N)=O)C(C)C)[C@@H](C)CC)[C@@H](C)O)[C@@H](C)CC)[C@@H](C)CC)C(C)C)C(C)C [compound 77] (H-IVLSLDVPIKLK([AEEA-AEEA-γGlu-C18 diacid])QILLKQERQKKQRQKAETNKQILAQV-NH2) | 0.33 nM | – | – | 3.60% | – | – | – | – | Yes | 23.0 to 29.7 h | 3.26 nM | 1.56% | > 8000 µg/mL | > 9000 µg/mL |
